Assay results: PMC10823475, “Design, Synthesis, and Evaluation of Inhibitors of Hedgehog Acyltransferase” (Journal of Medicinal Chemistry, 2024)

Legend:
purified HHAT = target: T1, purified HHAT (Homo sapiens, UniProt Q5VTY9); experiment: Acyl-cLIP assay, inhibition of purified HHAT; assay type: biochemical; settings: for fold increase in potency compared to racemate: enantiomer vs racemate (29 vs 21, 30 vs 24, 43 vs 39); for LLEAcyl-cLIP: from Acyl-cLIP IC50 and clogDpH7.4; for IC50: purified HHAT, read-out: Acyl-cLIP Assay IC50 (CI95)
T1 construct: made in house
Description: The inhibitory potency of all 50 compounds against purified HHAT was quantified using the acylation-coupled lipophilic induction of polarization (acyl-cLIP) assay recently developed in our lab, a universally applicable assay for high-throughput analysis of protein–lipid transferases and hydrolases.[31],[40] In brief, in this assay a fluorescently labeled peptide based on the N-terminal sequence of SHH is incubated with N-dodecyl β-D-maltoside (DDM) solubilized purified HHAT, palmitoyl-CoA, and HHAT inhibitors. Binding of the lipidated peptide product to the DDM micelle results in decreased tumbling rate and an increase in polarization of fluorescence emission, enabling facile quantification of HHAT activity. Initially, % HHAT inhibition was determined at 50 μM and 25 μM for all analogues. […] HHAT is a 12-pass TM protein,[14] and we considered whether lipophilicity might bias inhibition; pIC50 values were compared to calculated log D, which indicated no significant correlation (SI, Table S1 and Figure S2). We concluded that lipophilicity is not a general driver of HHAT inhibitory potency.
The acyl-cLIP assay has been described previously.[40] Briefly, SHH-FAM peptide was diluted in buffer A (100 mM MES, 20 mM NaCl, 1 mM DTT, 1 mM TCEP, 0.1% BSA, pH 6.5) to a concentration of 2 μM. Palmitoyl-CoA (Sigma-Aldrich) was diluted in buffer A to 7.5 μM and recombinant HHAT (obtained by following the published protocol[14]) in buffer B (20 mM HEPES, 350 mM NaCl, 1% DDM, 5% glycerol, pH 7.3) diluted to 44 μg/mL. 1.5 μL of a 50 mM inhibitor DMSO stock was diluted with 18.5 μL of DMSO and further serial diluted (1:1). For each condition, 6 μL of the HHAT working stock and […] of the SHH-peptide working stock were mixed with 3 μL of the corresponding inhibitor concentration or DMSO vehicle. Twelve μL/well of this mixture was split into four wells of a black 384 well plate. To start the reaction, 8 μL of the Pal-CoA working stock were added to each well and fluorescence anisotropy and the total fluorescence recorded on an EnVision Xcite 2104 (PerkinElmer) over 30 min (emission filter 1 = FITC FP P-pol 535; emission filter 2 = FITC S-pol 535; excitation filter: FITC FP 480; measurement height = 6.5 mm; detector gain = 0; high concentration gain). Initial rate constants were determined by linear regression and normalized to DMSO control and samples with buffer B instead of HHAT. IC50 values were extracted from the corresponding dose response curves using a “sigmoidal dose response (variable slope)” model in GraphPad Prism 5 (GraphPad Software, Inc.).

[1] = MTS assay, cytotoxicity (72 h); assay type: cell-based; settings: human, HEK293a SHH+ cells, 72 h; for CC50 at 72 h: read-out: MTS Assay (HEK293a SHH+) CC50 (CI95)
Description: (§1) The survival of HEK293a SHH^+ cells is independent of HH signaling,[35] therefore, the cytotoxicity of analogues was tested using the MTS assay to investigate off-target toxicity. In this assay, HEK293a SHH^+ cells were treated with DMSO vehicle or varying concentrations of analogues for 72 h. Subsequently, a mixture of 1-methoxy phenazine methosulfate (PMS) and [3-(4,5-dimethylthiazol-2-yl)-5-(3-carboxymethoxyphenyl)-2-(4-sulfophenyl)-2H-tetrazolium] (MTS) was added to enable quantification of cell number via colorimetric analysis. […] Compounds 3, 17, 19, 32, 34, 38, and 45, which all contain a 2-((2-methylbutyl)amino)acetyl, were toxic to HEK293a SHH^+ cells, as were ureas 26, 40, and 41.
(§2) HEK293a SHH^+ cells were plated at 5000 cells/well in a 96-well plate (Nunc) using a volume of 50 μL/well and cultured for 24 h as described. Cells were treated with 100 μL/well of either DMSO vehicle, Puromycin (2 μg/mL), or stated analogues (0.14–100 μM final) in DMEM supplemented with 10% FBS. After 72 h, 20 μL/well of a mixture of 1-methoxy phenazine methosulfate (PMS) and [3-(4,5-dimethylthiazol-2-yl)-5-(3-carboxymethoxyphenyl)-2-(4-sulfophenyl)-2H-tetrazolium] (MTS) at a ratio of MTS/PMS = 2/0.92 mg/mL in PBS was added and the plates were incubated for 3 h at 37 °C. Subsequently, the absorption at 490 nm was recorded using an EnVision Xcite 2104 (PerkinElmer), and the response was normalized to vehicle control and Puromycin treated samples. Dose response curves were fitted to a “sigmoidal dose response (variable slope)” model using GraphPad Prism 5 (GraphPad Software, Inc.).

HEK293a SHH+ cells = experiment: MTS assay, cytotoxicity (72 h); assay type: cell-based; settings: for decrease in cell viability / cell survival: 12.5 μM; for CC50: 72 h, read-out: MTS Assay (HEK293a SHH+) CC50 (CI95)
Description: as §1, §2

[2] = test system: HH signaling (HEK293a SHH+ conditioned media on SHH-Light2 cells); experiment: Light2 dual-luciferase cell-based HH signaling assay (Firefly); settings: Firefly luciferase, Light2 cells; read-out: HH signaling inhibition EC50 (CI95)
Description: Subsequently, the effect of analogues on HH signaling was investigated using a cellular luciferase reporter assay. Light2 cells derived from NIH3T3 cells constitutively express Renilla luciferase as an internal control for cell density alongside Firefly luciferase under the control of a HH-responsive Gli promoter.[43] HEK293a SHH^+ cells were incubated with varying inhibitor concentrations and SHH-containing conditioned media transferred to the NIH3T3-Light2 cells to mimic paracrine signaling[30],[35] (Figure 6A).
The Light2 cell-based signaling assay has been described previously.[35] Briefly, HEK293a SHH^+ cells were plated at 120,000 cells/well of a 12-well plate in a volume of 1 mL/well and cultured as described above. After 24 h, cells were washed with PBS, followed by addition of 1 mL of media containing 0.2% DMSO or varying inhibitor concentrations in DMSO (0.041–30 μM final). Additionally, SHH-Light2 cells were plated at 20,000 cells/well of a 96-well plate in 50 μL media. After another 24 h, 300 μL of the conditioned media were collected from each well of the treated HEK293a SHH^+ cells, centrifuged at 1000g for 10 min to remove detached cells and split into three wells of the SHH-Light2 cells (100 μL/well; 150 μL final volume in each well). The treated Light2 cells were cultured for another 48 h and subsequently washed with PBS. Firefly and Renilla luciferase activity was measured using the Dual-Luciferase reporter system (Promega Corporation, USA). Then 20 μL of 1× passive lysis buffer were added to each well. After 30 min at RT, 5 μL of each lysate were transferred to a white opaque 96-well plate. Then 20 μL/well of luciferase assay reagent II was added and the luminescence immediately recorded using a SpectraMax i3x plate reader (Molecular Devices LLC). Subsequently, 20 μL/well of 1× Stop&Glo substrate in Stop&Glo buffer was added and the luminescence immediately recorded for a second time. Data was evaluated using a “sigmoidal dose response (variable slope)” model in GraphPad Prism 5 (GraphPad Software, Inc.). The luminescence signal of the Firefly luciferase was normalized to the DMSO vehicle (100%) and the unconditioned media (0%) controls.

T1 sequence (Q5VTY9 whole entry): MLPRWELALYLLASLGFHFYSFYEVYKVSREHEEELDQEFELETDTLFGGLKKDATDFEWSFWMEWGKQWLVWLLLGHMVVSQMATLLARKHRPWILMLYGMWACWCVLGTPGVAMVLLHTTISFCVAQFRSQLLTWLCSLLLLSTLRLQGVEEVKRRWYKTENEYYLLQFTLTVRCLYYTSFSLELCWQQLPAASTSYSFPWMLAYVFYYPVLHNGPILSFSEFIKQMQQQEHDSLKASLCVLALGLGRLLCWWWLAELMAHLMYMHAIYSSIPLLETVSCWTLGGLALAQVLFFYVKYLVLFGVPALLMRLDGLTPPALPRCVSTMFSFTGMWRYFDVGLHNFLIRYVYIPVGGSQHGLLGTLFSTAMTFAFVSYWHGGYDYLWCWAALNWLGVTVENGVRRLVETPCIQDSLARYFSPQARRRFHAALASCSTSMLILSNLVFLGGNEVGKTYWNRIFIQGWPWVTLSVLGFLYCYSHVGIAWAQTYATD

| Compound | inhibition at 25 µM (purified HHAT) | inhibition at 50 µM (purified HHAT) | LLEAcyl-cLIP (purified HHAT) | IC50 (purified HHAT) | fold increase in potency compared to racemate (purified HHAT) | CC50 at 72 h [1] | viability at 72 h, 12.5 µM [1] | viability at 72 h, 25 µM [1] | decrease in cell viability / cell survival (HEK293a SHH+ cells) | CC50 (HEK293a SHH+ cells) | EC50 [2] | toxicity to HEK293a SHH+ cells (HEK293a SHH+ cells) |
| --- | --- | --- | --- | --- | --- | --- | --- | --- | --- | --- | --- | --- |
| CC(C)CNCC(=O)N1CCc2ccccc2C1c1ccccc1 (stereo in doubt) [Compound 43, (R)-2-((2-Methylpropyl)amino)-1-(1-phenyl-3,4-dihydroisoquinolin-2(1H)-yl)ethan-1-one] | 88 ± 3% | 93 ± 3% | 3.64 | 2.77 µM | 2 fold | > 50 µM | 98 ± 2% | 97 ± 3% | < 30% | > 100 µM | 0.8 µM |  |
| CC(=O)N1CCc2sccc2[C@@H]1c1cccc(C)n1 [Compound 29, (R)-1-(4-(6-Methylpyridin-2-yl)-6,7-dihydrothieno[3,2-c]pyridin-5(4H)-yl)ethan-1-one] | 76 ± 2% | 86 ± 2% | 3.10 | 7.45 µM | 2 fold | > 50 µM | 92 ± 3% | 88 ± 5% | < 30% | > 100 µM | 1.29 µM |  |
| CC(C)CNCC(=O)N1CCc2ccccc2C1c1ccccc1 (stereo not shown) [Compound 39, 2-((2-Methylpropyl)amino)-1-(1-phenyl-3,4-dihydroisoquinolin-2(1H)-yl)ethan-1-one] | 81 ± 2% | 86 ± 1% | 3.30 | 6.02 µM |  | > 50 µM | 94 ± 3% | 92 ± 4% | < 30% | > 100 µM | 2.59 µM |  |
| C=CCNCC(=O)N1CCc2sccc2C1c1ccccc1 (stereo not shown) [Compound 12, 2-(Allylamino)-1-(4-phenyl-6,7-dihydrothieno[3,2-c]pyridin-5(4H)-yl)ethan-1-one] | 68 ± 5% | 83 ± 1% | 2.94 | 6.55 µM |  | > 50 µM | 86 ± 2% | 73 ± 2% | < 30% |  | 2.92 µM |  |

Continued, in another order:

| inhibition at 25 µM (purified HHAT) | inhibition at 50 µM (purified HHAT) | LLEAcyl-cLIP (purified HHAT) | IC50 (purified HHAT) | Compound | fold increase in potency compared to racemate (purified HHAT) | CC50 at 72 h [1] | viability at 72 h, 12.5 µM [1] | viability at 72 h, 25 µM [1] | decrease in cell viability / cell survival (HEK293a SHH+ cells) | CC50 (HEK293a SHH+ cells) | EC50 [2] | toxicity to HEK293a SHH+ cells (HEK293a SHH+ cells) |
| --- | --- | --- | --- | --- | --- | --- | --- | --- | --- | --- | --- | --- |
| 87 ± 7% | 86 ± 8% | 4.04 | 3.71 µM | CC[C@H](C)CNCC(=O)N1CCc2sccc2C1c1cccc(C)n1 (stereo partly shown) [Compound 23] |  | > 50 µM | 87 ± 2% | 74 ± 3% |  | > 100 µM | 1.58 µM |  |
| 89 ± 3% | 93 ± 3% | 2.43 | 4.22 µM | CCC(C)CNCC(=O)N1CCc2ccc(Cl)cc2C1c1ccccc1 (stereo not shown) [Compound 45, 1-(7-Chloro-1-phenyl-3,4-dihydroisoquinolin-2(1H)-yl)-2-((2-methylbutyl)amino)ethan-1-one] |  | 15.4 µM | 70 ± 3% | 14 ± 4% | < 30% |  | 6.44 µM | toxic |
| 66 ± 2% | 79 ± 2% | 3.00 | 8.09 µM | CCC(C)CNCC(=O)N1CCc2sccc2C1c1ccccc1OC (stereo not shown) [Compound 32, 1-(4-(2-Methoxyphenyl)-6,7-dihydrothieno[3,2-c]pyridin-5(4H)-yl)-2-((2-methylbutyl)amino)ethan-1-one] |  | 7.6 µM | 55 ± 3% | 42 ± 2% |  |  | > 30 µM | toxic |
| 81 ± 1% | 91 ± 1% | 3.84 | 7.98 µM | CCC(C)CNCC(=O)N1CCc2sccc2C1c1ccccn1 (stereo not shown) [Compound 19, 2-(2-Methylbutylamino)-1-[4-(pyridin-2-yl)-6,7-dihydro-4H-thieno[3,2-c]pyridin-5-yl]ethanone] |  | 20.3 µM | 87 ± 1% | 75 ± 4% | < 30% |  | 0.58 µM | toxic |
